This passage reports IC50 results from ChEMBL document CHEMBL5604063, “ASAP - DENV-2 NS2B-NS3 protease fluorescence dose response” (2024).

In assay [1] the target is T1, Genome polyprotein (dengue virus type 2, UniProt P29990). In kind it is functional, Thailand/16681/1984.
Assay [2] concerns the target T1, Genome polyprotein. In kind it is functional, Thailand/16681/1984. This is another data set of the same source.

T1 sequence (P29990 1346-1475 limits assumed): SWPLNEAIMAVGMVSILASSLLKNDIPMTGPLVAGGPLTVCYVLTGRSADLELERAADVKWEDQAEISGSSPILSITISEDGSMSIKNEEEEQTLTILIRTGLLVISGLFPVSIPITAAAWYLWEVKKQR
T1 sequence (P29990 1476-2093 limits assumed): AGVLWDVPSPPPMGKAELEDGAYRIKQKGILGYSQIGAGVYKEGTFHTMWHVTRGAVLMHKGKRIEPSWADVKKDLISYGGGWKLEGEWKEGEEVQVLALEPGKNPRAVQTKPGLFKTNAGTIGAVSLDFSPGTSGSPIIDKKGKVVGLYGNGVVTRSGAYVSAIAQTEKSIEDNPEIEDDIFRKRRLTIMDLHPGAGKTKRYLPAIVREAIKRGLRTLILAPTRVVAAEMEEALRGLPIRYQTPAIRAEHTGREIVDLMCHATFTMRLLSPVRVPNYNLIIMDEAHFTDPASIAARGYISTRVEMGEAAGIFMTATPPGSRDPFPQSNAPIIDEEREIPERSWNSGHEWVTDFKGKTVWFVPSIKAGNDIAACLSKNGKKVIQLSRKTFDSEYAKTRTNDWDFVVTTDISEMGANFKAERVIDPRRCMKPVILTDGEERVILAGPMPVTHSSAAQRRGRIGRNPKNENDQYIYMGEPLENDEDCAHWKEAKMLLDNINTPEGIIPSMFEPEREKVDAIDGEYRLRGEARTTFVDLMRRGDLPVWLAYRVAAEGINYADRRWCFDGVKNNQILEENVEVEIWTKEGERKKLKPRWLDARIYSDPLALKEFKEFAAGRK

As to `CC(C)c1noc2nc(C3CC3)cc(C(=O)Nc3cccc(CN)c3)c12`, the half-maximal inhibitory concentration (IC50) in assay [1] is more than 100 µM; in assay [2], more than 99.5 µM.

For `NCc1ccc(NS(=O)(=O)c2ccc(Oc3ccccc3Cl)cc2)cc1`, the IC50 in assay [1] was more than 100 µM; in assay [2] it was more than 99.5 µM.

On to `CC(C)c1ncc(OC2CCC2)c(C(=O)Nc2cccc(CN)c2)n1`, for which the IC50 in assay [1] was more than 100 µM; in assay [2], more than 99.5 µM.

As to `Cc1c(CN)cccc1NS(=O)(=O)c1ccc(Oc2ccccc2Cl)cc1`, the half-maximal inhibitory concentration (IC50) is more than 100 µM in assay [1] and more than 99.5 µM in assay [2].

For the compound `N[C@H]1CCc2ncc(NS(=O)(=O)c3ccc(Oc4ccccc4Cl)cc3)cc2C1`, the IC50 in assay [1] is more than 100 µM; in assay [2], more than 99.5 µM.

Take `O=C(Nc1cc(Cl)cc(C(=O)Nc2cccc([C@H]3CCCCN3)c2)c1)OCc1ccccc1`: the IC50 was more than 100 µM in assay [1] and more than 99.5 µM in assay [2].

For `Cc1cc(=O)c(C(=O)Nc2cccc(CN)c2)nn1-c1ccccc1C(F)(F)F`, the IC50 in assay [1] is more than 100 µM; in assay [2], more than 99.5 µM.

Consider `C[C@H]1CCN1C(=O)Cn1ccnc(N2CC[C@H](CO)C2)c1=O`, for which the IC50 was more than 100 µM in assay [1] and more than 99.5 µM in assay [2].

With `NCc1ccncc1NS(=O)(=O)c1ccc(Oc2ccccc2Cl)cc1`, the half-maximal inhibitory concentration (IC50) in assay [1] was more than 100 µM; in assay [2], 37.1 µM.

With `NCc1cccc(NC(=O)c2cc(C3CCCCC3)nc3ccc(F)cc23)c1`, the results for the half-maximal inhibitory concentration (IC50) in assay [1] and in assay [2] were more than 100 µM and more than 99.5 µM, respectively.

`NCc1cccc(NC(=O)c2cccc(Oc3ccc(Cl)c(Cl)c3)n2)c1`: the IC50 in assay [1] was more than 100 µM; in assay [2] it was 95.6 µM.

As for `NCc1cccc(NC(=O)c2cc(C3CC3)nc3c(Cl)cnn23)c1`, the IC50 was more than 100 µM in assay [1] and more than 99.5 µM in assay [2].

For `O=C(Cn1ccnc(N2CC[C@H](CO)C2)c1=O)N[C@H]1CCOC1`, the results for the half-inhibitory concentration (IC50) in assay [1] and in assay [2] were more than 100 µM and more than 99.5 µM, respectively.

With `CCCOc1ccc2[nH]cc(CN3CCC(c4cscn4)CC3)c2c1`, the figures for the IC50 in assay [1] and in assay [2] were more than 100 µM and more than 99.5 µM, respectively.

As to `NCc1cccc(NC(=O)c2cccn3cc(CN4CCCC4)nc23)c1`, the IC50 in assay [1] is more than 100 µM; in assay [2], more than 99.5 µM.

Take `CC(C)Oc1cc(CN)ccc1NS(=O)(=O)c1ccc(Oc2ccccc2Cl)cc1`: the IC50 in assay [1] is more than 100 µM; in assay [2] it was more than 99.5 µM.

On to `NCc1cccc(NC(=O)Cc2cccc(Oc3ccncc3Br)c2)c1`, for which the IC50 was more than 100 µM in assay [1] and more than 99.5 µM in assay [2].

As for `O=C(Nc1cc(Cl)cc(C(=O)Nc2ccnc(OC3CNC3)c2)c1)OCc1ccccc1`, the 50% inhibitory concentration (IC50) was more than 100 µM in assay [1] and more than 99.5 µM in assay [2].

Take `NCc1cccc(/C=C/c2cc(Cl)cc(NC(=O)OCc3ccccc3)c2)c1`: the values for the IC50 in assay [1] and in assay [2] were more than 100 µM and more than 99.5 µM, respectively.

As to `CN1CCC[C@H]1COc1ccc([C@@H](NC(=O)OCc2ccccc2)C(=O)Nc2cccc(CN)c2)cc1`, the IC50 in assay [1] was more than 100 µM; in assay [2], more than 99.5 µM.

As to `NCc1cccc(NC(=O)c2cccc3c2O[C@H](c2ccccc2)C(=O)N3)c1`, the values for the IC50 in assay [1] and in assay [2] were more than 100 µM and more than 99.5 µM, respectively.

On to `NCc1cccc(NC(=O)c2cc(C(F)(F)F)ccc2SC2CCCC2)c1`, for which the values for the IC50 in assay [1] and in assay [2] were more than 100 µM and more than 99.5 µM, respectively.

Take `Cc1ccc(NS(=O)(=O)c2ccc(Oc3ccccc3Cl)cc2)cc1CN`: the IC50 in assay [1] was more than 100 µM; in assay [2], more than 99.5 µM.

As for `CCOc1cccc(-c2ccc(S(=O)(=O)Nc3cc4c(cc3C(=O)O)CCC4)cc2)c1`, the IC50 in assay [1] came out at 11.5 µM; in assay [2] it was 8.67 µM.

In the case of `Cc1ccc(Sc2ncccc2C(=O)Nc2cccc(CN)c2)cc1C`, the IC50 in assay [1] was more than 100 µM; in assay [2] it was more than 99.5 µM.

On to `COCCN(C)C(=O)Cn1ccnc(N2CC[C@@H](CO)C2)c1=O`, for which the values for the half-inhibitory concentration (IC50) in assay [1] and in assay [2] were more than 100 µM and more than 99.5 µM, respectively.

Turning to `NCc1ccc(F)c(NC(=O)c2cc(Cl)cc(NC(=O)OCc3ccccc3)c2)c1`, the IC50 in assay [1] was more than 100 µM; in assay [2], more than 99.5 µM.

For the compound `NCc1cccc(NC(=O)[C@H](NC(=O)OCc2ccccc2)C2CCN(C(=O)Cn3ccnc3)CC2)c1`, the figures for the concentration for half-maximal inhibition (IC50) in assay [1] and in assay [2] were more than 100 µM and more than 99.5 µM, respectively.

Turning to `CC(C)c1nn(-c2ccccc2)cc1C(=O)Nc1cccc(CN)c1`, the values for the IC50 in assay [1] and in assay [2] were more than 100 µM and more than 99.5 µM, respectively.

With `NCc1cccc(NC(=O)c2cc(C3CC3)n3nccc3n2)c1`, the IC50 in assay [1] is more than 100 µM; in assay [2], more than 99.5 µM.

Regarding `CC[C@H](C(=O)Nc1cccc(CN)c1)n1cc(Br)c(C(F)(F)F)n1`, the IC50 was more than 100 µM in assay [1] and more than 99.5 µM in assay [2].

As to `CC(C)(C)OC(=O)NCc1cc(Cl)cc(C(=O)O)c1`, the IC50 was more than 100 µM in assay [1] and more than 99.5 µM in assay [2].

As for `O=C1Nc2ccccc2[C@H]1N1CCC(c2nc3ccccc3s2)CC1`, the figures for the IC50 in assay [1] and in assay [2] were more than 100 µM and more than 99.5 µM, respectively.

For `O=C(Nc1cc(Cl)cc(C(=O)NCC[C@H]2COCCN2)c1)OCc1ccccc1`, the IC50 in assay [1] was more than 100 µM; in assay [2] it was more than 99.5 µM.

`CC(C)(C)Cn1c(=O)[nH]c2cccc(C(=O)Nc3cccc(CN)c3)c21`: the half-maximal inhibitory concentration (IC50) in assay [1] was more than 100 µM; in assay [2], more than 99.5 µM.

`CC(C)(C)NS(=O)(=O)c1cccc(C(=O)Nc2cccc(CN)c2)c1`: the half-maximal inhibitory concentration (IC50) in assay [1] was more than 100 µM; in assay [2] it was more than 99.5 µM.

Take `Cn1nc(C2CC2)c2c(C(=O)Nc3cccc(CN)c3)cc(C3CC3)nc21`: the half-inhibitory concentration (IC50) in assay [1] is more than 100 µM; in assay [2] it was more than 99.5 µM.

For the compound `COCCCC(=O)N1CCC([C@H](NC(=O)OCc2ccccc2)C(=O)Nc2cccc(CN)c2)CC1`, the 50% inhibitory concentration (IC50) was more than 100 µM in assay [1] and more than 99.5 µM in assay [2].

On to `NCc1cccc(NC(=O)c2cc(C3CC3)nn2-c2ccccc2)c1`, for which the IC50 was more than 100 µM in assay [1] and more than 99.5 µM in assay [2].

As to `CC(C)(C#N)c1cc(C(=O)Nc2cccc(CN)c2)cc(C(F)(F)F)c1`, the IC50 in assay [1] was more than 100 µM; in assay [2] it was more than 99.5 µM.

Consider `NCc1ccc(CNC(=O)c2cc(Cl)cc(NC(=O)OCc3ccccc3)c2)c(F)c1`, for which the concentration for half-maximal inhibition (IC50) was more than 100 µM in assay [1] and more than 99.5 µM in assay [2].

In the case of `CCC1(NC(=O)Cn2ccnc(N3CC[C@@H](CO)C3)c2=O)CC1`, the IC50 in assay [1] was more than 100 µM; in assay [2], more than 99.5 µM.

Consider `CCCn1nc(C)c2c(C(=O)Nc3cccc(CN)c3)cc(C)nc21`, for which the 50% inhibitory concentration (IC50) in assay [1] is more than 100 µM; in assay [2], more than 99.5 µM.

On to `CCC1CN(C(=O)Cn2ccnc(N3CC[C@@H](CO)C3)c2=O)C1`, for which the half-maximal inhibitory concentration (IC50) in assay [1] was more than 100 µM; in assay [2] it was more than 99.5 µM.

Turning to `NCc1cccc(NC(=O)c2ccc(=O)n(Cc3ccccc3Cl)c2)c1`, the IC50 is more than 100 µM in assay [1] and more than 99.5 µM in assay [2].

For the compound `C#Cc1cc(CN)ccc1NS(=O)(=O)c1ccc(Oc2ccccc2Cl)cc1`, the concentration for half-maximal inhibition (IC50) in assay [1] is more than 100 µM; in assay [2] it was more than 99.5 µM.

With `Cc1ccc(S(=O)(=O)N2CCC([C@@H](NC(=O)OCc3ccccc3)C(=O)Nc3cccc(CN)c3)CC2)c(C)c1`, the IC50 in assay [1] was more than 100 µM; in assay [2] it was more than 99.5 µM.

Take `Cc1ccc(C(=O)Nc2cccc(CN)c2)cc1NC(=O)Cc1ccncc1`: the half-maximal inhibitory concentration (IC50) in assay [1] is more than 100 µM; in assay [2], more than 99.5 µM.

`c1cncc(-c2cccc(NCc3c[nH]c4ccccc34)c2)c1`: the IC50 is more than 100 µM in assay [1] and more than 99.5 µM in assay [2].

Consider `NCc1cccc(NC(=O)c2cc(C(F)(F)F)nn2CC2CCC2)c1`, for which the IC50 was more than 100 µM in assay [1] and more than 99.5 µM in assay [2].

In the case of `CCCC(=O)Nc1cc(Cl)cc(C(=O)Nc2cccc(CN)c2)c1`, the half-inhibitory concentration (IC50) in assay [1] is more than 100 µM; in assay [2], more than 99.5 µM.

Turning to `C[C@H]1CCCCN1C(=O)Cn1ccnc(N2CC[C@@H](CO)C2)c1=O`, the half-inhibitory concentration (IC50) in assay [1] is more than 100 µM; in assay [2], more than 99.5 µM.

With `NCc1cccc(NC(=O)c2cc(C3CC3)n3nc(C(F)(F)F)cc3n2)c1`, the IC50 in assay [1] was more than 100 µM; in assay [2], more than 99.5 µM.

`NCc1cccc(NC(=O)c2c(C(F)F)nc3cnccn23)c1`: the values for the IC50 in assay [1] and in assay [2] were more than 100 µM and more than 99.5 µM, respectively.

On to `CNC(=O)CN1CCC([C@@H](NC(=O)OCc2ccccc2)C(=O)Nc2cccc(CN)c2)CC1`, for which the results for the IC50 in assay [1] and in assay [2] were more than 100 µM and more than 99.5 µM, respectively.

For the compound `Cc1ccc(NC(=O)c2cc(Cl)ccc2Cl)c(C(=O)Nc2cccc(CN)c2)c1`, the IC50 in assay [1] was more than 100 µM; in assay [2], more than 99.5 µM.

Turning to `O=c1[nH]c2cccc(N3CCN(Cc4c[nH]c5ccccc45)CC3)c2o1`, the IC50 is more than 100 µM in assay [1] and more than 99.5 µM in assay [2].

Take `N[C@@H]1CC[C@H](CCNC(=O)c2cc(Cl)cc(NC(=O)OCc3ccccc3)c2)C1`: the values for the IC50 in assay [1] and in assay [2] were more than 100 µM and more than 99.5 µM, respectively.

In the case of `Cc1cc(C(=O)Nc2cccc(CN)c2)cc(NC(=O)OCc2ccccc2)c1Cl`, the IC50 was more than 100 µM in assay [1] and 55.4 µM in assay [2].

On to `N[C@@H]1CC[C@H](NC(=O)c2cc(Cl)cc(NC(=O)OCc3ccccc3)c2)C1`, for which the IC50 in assay [1] is more than 100 µM; in assay [2], more than 99.5 µM.

Turning to `CN(c1ccc(Oc2ccccc2Cl)cc1)S(=O)(=O)c1cc(F)c(Cl)cc1C(=O)O`, the IC50 in assay [1] came out at 46.5 µM; in assay [2], 65.4 µM.

In the case of `c1ccc2c(CNC3CCN(Cc4cscn4)CC3)c[nH]c2c1`, the IC50 in assay [1] is more than 100 µM; in assay [2], more than 99.5 µM.

As for `CCCCCn1cc(C(=O)Nc2cccc(CN)c2)c2ccccc21`, the IC50 is more than 100 µM in assay [1] and more than 99.5 µM in assay [2].

On to `Cc1cc(C(=O)Nc2cccc(CN)c2)nc2c(C(C)C)cnn12`, for which the IC50 in assay [1] was more than 100 µM; in assay [2] it was more than 99.5 µM.

In the case of `Cc1noc(C)c1Cc1ccc(C(=O)Nc2cccc(CN)c2)o1`, the half-maximal inhibitory concentration (IC50) was more than 100 µM in assay [1] and more than 99.5 µM in assay [2].

In the case of `CN1CCC(COc2ccc([C@@H](NC(=O)OCc3ccccc3)C(=O)Nc3cccc(CN)c3)cc2)CC1`, the concentration for half-maximal inhibition (IC50) in assay [1] is more than 100 µM; in assay [2], more than 99.5 µM.

`NCc1cccc(NC(=O)c2nn(-c3ccc(Cl)c(F)c3)c3c2CCC3)c1`: the IC50 was more than 100 µM in assay [1] and 72.7 µM in assay [2].

Take `CCC[C@H](Oc1ccc(Cl)cc1C)C(=O)Nc1cccc(CN)c1`: the IC50 in assay [1] is more than 100 µM; in assay [2], more than 99.5 µM.

For `CCCN(C)CC(=O)N1CCC([C@@H](NC(=O)OCc2ccccc2)C(=O)Nc2cccc(CN)c2)CC1`, the IC50 was more than 100 µM in assay [1] and more than 99.5 µM in assay [2].

The term IC50 denotes the midpoint of a concentration-inhibition curve. Lower therefore signals greater potency.
